Measurements from patent US12257224B2, “Methods of administration for highly water-soluble salts of a short acting phenylalkylamine calcium channel blocker” (Milestone Pharmaceuticals Inc., priority 2021, dated 2025).

Assays:
[1] = Formation of concentrated aqueous acid addition salt solutions of compound I; assay type: physicochemical; conditions: free base treated with methanesulfonic acid or acetic acid
[2] = Permeation of compound I through the nasal epithelium with EDTA in the formulation
Source text: The nasal vestibule, which accounts for approximately 3-4% of the surface area of the nasal cavity, lacks tight junctions altogether and is thus not affected by calcium chelating agents. […] As such, it has been postulated that the nasal epithelium is not susceptible to permeability modulation by EDTA (Aungst, et al., Pharma. Res., 1998, 5:305-308). Additionally, the ability of EDTA to increase permeation of a compound through the nasal epithelium is attenuated as the molecular weight of the compound increases (Nakanishi, et al., Chem. Pharm. Bull., 1984, 32:1628-1632).

[3] = Phase 1 study (doses up to 140 mg; PR interval, MFD, TEAEs); assay type: in vivo, human
induced PSVT = assay: Phase 2 study: termination of induced PSVT; assay type: in vivo, human; conditions: for mean reduction in systolic blood pressure (SBP) versus baseline: between 4 and 10 minutes after administration
Method: In a Phase 2 study, four doses (35, 70, 105, and 140 mg) were tested.

subjects in sinus rhythm = assay: Example 4: one vs two 70 mg doses, PR interval and safety; assay type: in vivo, human
Method: A population of 46 subjects in sinus rhythm received one 70 mg dose of compound I according to the protocol of Example 2, and after several months the dose regimen of 70 mg followed by a repeat same dose of 70 mg 10 minutes later as in the protocol of Example 3.
Two dose administration followed the same protocol as single dose administration for the initial dose, however 10 minutes after the first 70 mg dose of compound I, a second 70 mg dose of compound I was administered. For the second dose, the patients were allowed to blow their nose to remove any excess fluid build-up immediately prior to self-administration of the second 70 mg dose.

PSVT = assay: Example 5: heart rate during PSVT prior to conversion to sinus rhythm; assay type: in vivo, human
Source text: Each PSVT was documented by an ambulatory cardiac monitoring system that was placed on the chest after symptoms began. Baseline (average of four values before drug administration), and every minute of heart rate data were captured from baseline until one minute before the PSVT was converted to sinus rhythm. […]

[4] = one and two 70 mg dose regimens
[5] = patients who converted to sinus rhythm

## COC(=O)c1cccc(CCN(C)CCCC(C#N)(c2ccc(OC)c(OC)c2)C(C)C)c1 (stereo not shown) [compound I, methyl 3-(2-((4-cyano-4-(3,4-dimethoxyphenyl)-5-methylhexyl)(methyl)amino)ethyl)benzoate]
[1]
  salt solution concentration attainable: concentrations sufficient for nasal administration
[2]
  permeation through the nasal epithelium: increased the permeation of compound I through the nasal epithelium
[3]; 4 highest doses tested: 30, 60, 105 and 140 mg
  PR interval of the ECG: produced an increase in the PR interval of the ECG
[3]; doses higher than 70 mg
  Treatment Emergent Adverse Effects (TEAEs): an increase in Treatment Emergent Adverse Effects (TEAEs), mainly related to nasal irritation
[3]; two 30 mg doses 10 minutes apart vs single 30 mg dose
  drug exposure and PR interval: drug exposure and PR interval increased and remained elevated for a longer period
Induced PSVT; 35 mg, at 15 minutes
  overall success rate: 65%
  treatment effect compared to placebo: 30%
Induced PSVT; 105 mg
  mean reduction in systolic blood pressure (SBP) versus baseline: 11.4%
Induced PSVT; 140 mg
  mean reduction in systolic blood pressure (SBP) versus baseline: 15.6%
Induced PSVT; 70, 105 and 140 mg vs placebo
  termination of induced PSVT within 15 minutes of dosing: statistically significantly superior compared with placebo
  time to conversion of PSVT to sinus rhythm (SR): shorter
Induced PSVT; NS 70 mg
  tolerability: well tolerated
Induced PSVT; doses of 35 and 70 mg
  mean SBP: did not drop
Subjects in sinus rhythm; [4]
  AV block: No new AV block was observed
  lowest systolic blood pressure seen: ≥ 99 mmHg
  severe adverse reactions: No severe adverse reactions were seen
Subjects in sinus rhythm; repeat 70 mg, second dose 10 minutes after the initial dose
  increase in PR interval: 21 ms
Subjects in sinus rhythm; repeat dose of 70 mg
  maximum percentage increase in PR interval: 14%
Subjects in sinus rhythm; repeat dose of 70 mg vs single dose of 70 mg
  duration of PR increase: more prolonged
Subjects in sinus rhythm; single 70 mg administration
  increase in PR interval: 15 ms
  maximum percentage increase in PR interval: 9%
Subjects in sinus rhythm; single 70 mg dose and two 70 mg doses separated by 10 minutes
  heart rate and systolic blood pressure: remain in normal ranges
Subjects in sinus rhythm; two dose regimen of 70 mg compared to single dose regimen
  safety and tolerability: safe and was well tolerated
PSVT; 70 mg, 3 min, during PSVT
  mean change in heart rate from baseline (±SE): −10 bpm
PSVT; 70 mg, 10 min, during PSVT
  mean change in heart rate from baseline (±SE): −16 bpm
PSVT; 70 mg, 30 min, during PSVT
  mean change in heart rate from baseline (±SE): −14 bpm
PSVT; 70 mg, 40 min, during PSVT
  mean change in heart rate from baseline (±SE): −13 bpm
PSVT; 70 mg, during PSVT
  persistence of decrease in heart rate: sustained through the 60-minute observation period
PSVT; 70 mg, within the first minute, during PSVT
  mean change in heart rate from baseline (±SE): −5 bpm
PSVT; [5]
  maximal change from baseline in heart rate, converters to sinus rhythm in <30 minutes versus >30 minutes: significant difference
  maximal change from baseline in heart rate, converters to sinus rhythm in <60 minutes versus >60 minutes: significant difference
